Values quoted from earlier work as cited in patent US12447129B2, “Solid dosage form production” (University of Lancashire, priority 2014, dated 2025).

Tests used:
[1] = at 25° C.
[2] = plasticiser alone; input to the calculation

Compound | water sol. [1] [mg/L] | Tg (K) plasticiser [2] [K]
Cn1c(=O)c2[nH]cnc2n(C)c1=O [theophylline] | 7360 | 
CCOC(=O)CC(O)(CC(=O)OCC)C(=O)OCC [TEC] |  | 203.55
CC(=O)OCC(COC(C)=O)OC(C)=O [Triacitin] |  | 193.7
